# Legend:
# Format in all cases: biochemical
# OleT [1] = test: Decarboxylation of FAs C22 to C4 employing the FDH-CamAB-OleT redox-cascade; conditions: for Conversion / α-Olefin / Selectivity α-OH / Selectivity α-Olefin / Selectivity β-OH / Selectivity n-Alkanone: 10 mM substrate
# Description: (§1) Enzymatic reactions (1 mL scale) were quenched by addition of 100 μL 5 N Extraction of substrate and products was performed with 500 μL EtOAc containing 0.1% 1-decanol as internal standard. The organic phase was dried over anhydrous Na2SO4. Derivatization of carboxylic acids (fatty acids and hydroxy acids) to the corresponding methyl esters was achieved by mixing the organic phase with MeOH (2.5:1.5 v/v) followed by supplementation of 5 to 15 μL of 2 M TMSCHN2 (trimethylsilyldiazomethane in diethyl ether). The mixture was incubated for 30 min, 25° C. and 750 rpm before injection into GC-FID or GC-MS, Extraction and derivatization of products and substrates from conversion of short chain FAs ([…]) was performed using the same protocol but all steps were performed on ice to prevent undesired loss of volatile products.
# (§2) Products from FA substrates with chain lengths ranging from C22 to C10 were separated on a HP5 column (Programm) and detected by GC-FID or GC-MS. Extracted products from conversion of nonanoic acid (I-octene as product) were separated on a DB1702 column (Programm) and detected by GC-FID. Authentic standards of substrates and terminal olefins were treated as described above and were used as references for identification and preparation of calibration curves. Detection of volatile short chain terminal olefins (1-butene/1-propene [ongoing] to 1-heptene) was accomplished by manual injection from vial headspaces into GC-MS, in order to prevent loss of products, the vials containing the reaction mixtures were sealed with a PTFE septum. After conversion the closed vial was heated for 10 min at 80° C., together with a 10 ml syringe (TYPE). From the headspace 2 to 9 μl volumes were injected splitless into a GC-MS chromatograph and analytes were separated on a HP5 column (Programm). Calibration curves for 1-pentene, 1-hexene and 1-heptene were prepared in the same way at 4° C. and using 5% DMF as cosolvent.
# The substrate scope of OleT was further investigated by varying the FA chain length from C3 to C22. […] For the first time, short EAs could be decarboxylated to the corresponding olefins, covering the whole spectrum from C11 down to C4. […] Due to the high volatility of short chain olefins, product work up was done at 4° C. […] (2.53 mM product from 5 mM lauric acid). Head-space analysis by GC-MS from reactions with short chain FAs (C8-C5) confirmed the formation of the respective α-olefins, allowing the first biotechnological access to 1-heptene, 1-hexene and 1-pentene and 1-butene with OleT.
# Conversion of heptanoic acid was carried out as described in Example 4 using the OleTCamAB-FDH reaction cascade.
# Calibration curves for 1-hexene were prepared accordingly ranging from 0.05 to 2 mM. Due to a strong overlap of […] with the peak areas of CO2 and EtOH (FIG. 1, peaks a, b and c) the ion extraction mode of the GC-MS to generate reliable calibration curves was used. Neither CO2 nor EtOH interfered with the product peak area. This can be seen comparing FIGS. 1 and 5 which allow reliable and linear quantification of 1-hexene (FIG. 6) using manual headspace GC-MS injection.
# Manual headspace injection into GC-MS was successfully performed for all substrates with chain lengths of C11 to C6. Conversion of 10 mM heptanoic acid allowed reliable formation of up to 1.3 mM 1-hexene without further optimization of the reaction conditions.
# OleT [2] = test: Decarboxylation of stearic and palmitic acid by OleT using O2/CamAB or H2O2 as oxidant; conditions: 1 μM OleT, 1 mM substrate
# OleT [3] = test: Decarboxylation of stearic acid by OleT with CamAB redox cascade and NAD(P)H regeneration system (GDH, PDH, FDH)
# Description: as §1, §2
# After 24 h reaction time, product concentrations of 1.16 mM (0.27 g L-1) 1-heptadecene and 1 mM (0.21 g L-1) 1-pentadecene were obtained but could not be further enhanced. […] Compared to a previously published whole cell reaction system, this FDH-driven system allows 6 times higher product titer and a 21 times higher volumetric productivity with 42.5 mg L-1 h-1 of α-olefin after 8 h reaction time vs: 98 mg L-1 in 48 h) (Table 2).
# [4] = 200 μM NADPH + O2, CamAB, 60 min
# [5] = 1 mM H2O2, 150 min, no CamAB, strong precipitation observed
# [6] = 1 mM NADPH + O2, CamAB, 150 min
# [7] = FDH-based regeneration, 5 mM stearic acid
# [8] = Formate [8 h], FDH-CamAB, purified OleT 3 μM, 5 mM stearic acid
# [9] = Formate, FDH-(Fdr/Fdx) without CamAB, cell free lysate OleT 3 μM, 5 mM stearic acid, 24 h
# [10] = Formate, FDH-CamAB, purified OleT 1.5 μM, 5 mM stearic acid, 24 h
# [11] = Formate, FDH-CamAB-Fdr/Fdx, cell free lysate OleT 3 μM, 5 mM stearic acid, 24 h
# [12] = Glucose, GDH-CamAB, purified OleT 1.5 μM, 5 mM stearic acid, 24 h
# [13] = PDH-based regeneration, 5 mM stearic acid
# [14] = Phosphite, PDH-CamAB, purified OleT 1.5 μM, 5 mM stearic acid, 24 h
structure (smiles),measurement,setting,value
"CCCCCCCCC(=O)O [C9, nonanoic acid]",Conversion,"OleT [1]; 4 °C, 72 h",13%
same,α-Olefin,"OleT [1]; 4 °C, 72 h",1347 µM
same,Conversion,"OleT [1]; 25 °C, 24 h",18%
same,Selectivity α-OH,"OleT [1]; 25 °C, 24 h",17 % GC-area
same,Selectivity α-Olefin,"OleT [1]; 25 °C, 24 h",53 % GC-area
same,Selectivity β-OH,"OleT [1]; 25 °C, 24 h",30 % GC-area
same,α-Olefin,"OleT [1]; 25 °C, 24 h",1829 µM
"CCCCCCCCCC(=O)O [C10, capric acid/decanoic acid]",Conversion,"OleT [1]; 4 °C, 72 h",0.7%
same,Selectivity α-Olefin,"OleT [1]; 4 °C, 72 h",>99 % GC-area
same,α-Olefin,"OleT [1]; 4 °C, 72 h",71 µM
same,Conversion,"OleT [1]; 25 °C, 24 h",0.4%
same,Selectivity α-Olefin,"OleT [1]; 25 °C, 24 h",>99 % GC-area
same,Selectivity β-OH,"OleT [1]; 25 °C, 24 h",Traces
same,α-Olefin,"OleT [1]; 25 °C, 24 h",44 µM
"CCCCCCCCCCCC(=O)O [C12, lauric acid]",product concentration,"OleT [1]; 4° C., 5 mM lauric acid",2.53 mM
same,Conversion,"OleT [1]; 4 °C, 72 h",33%
same,Selectivity α-Olefin,"OleT [1]; 4 °C, 72 h",73 % GC-area
same,Selectivity β-OH,"OleT [1]; 4 °C, 72 h",30 % GC-area
same,α-Olefin,"OleT [1]; 4 °C, 72 h",3260 µM
same,Conversion,"OleT [1]; 25 °C, 24 h",3%
same,α-Olefin,"OleT [1]; 25 °C, 24 h",273 µM
"CCCCCCCCCCCCCCCC(=O)O [Palmitic Acid, palmitic acid]",Conversion,"OleT [1]; 4 °C, 72 h",21%
same,Selectivity n-Alkanone,"OleT [1]; 4 °C, 72 h",6 % GC-area
same,Selectivity α-OH,"OleT [1]; 4 °C, 72 h",<1 % GC-area
same,Selectivity α-Olefin,"OleT [1]; 4 °C, 72 h",80 % GC-area
same,Selectivity β-OH,"OleT [1]; 4 °C, 72 h",14 % GC-area
same,α-Olefin,"OleT [1]; 4 °C, 72 h",2059 µM
same,Conversion,"OleT [1]; 25 °C, 24 h",11%
same,Selectivity n-Alkanone,"OleT [1]; 25 °C, 24 h",8 % GC-area
same,Selectivity α-OH,"OleT [1]; 25 °C, 24 h",3 % GC-area
same,Selectivity α-Olefin,"OleT [1]; 25 °C, 24 h",72 % GC-area
same,Selectivity β-OH,"OleT [1]; 25 °C, 24 h",23 % GC-area
same,α-Olefin,"OleT [1]; 25 °C, 24 h",1111 µM
same,Coupling,"OleT [2]; 200 μM H2O2, 60 min, no CamAB",33%
same,TOF,"OleT [2]; 200 μM H2O2, 60 min, no CamAB",65 h⁻¹
same,TON,"OleT [2]; 200 μM H2O2, 60 min, no CamAB",65
same,α-Olefin,"OleT [2]; 200 μM H2O2, 60 min, no CamAB",65 µM
same,Coupling,"OleT [2]; 200 μM NADH + O2, CamAB, 6 min",3%
same,TOF,"OleT [2]; 200 μM NADH + O2, CamAB, 6 min",60 h⁻¹
same,TON,"OleT [2]; 200 μM NADH + O2, CamAB, 6 min",60
same,α-Olefin,"OleT [2]; 200 μM NADH + O2, CamAB, 6 min",6 µM
same,Coupling,OleT [2]; [4],10%
same,TOF,OleT [2]; [4],21 h⁻¹
same,TON,OleT [2]; [4],21
same,α-Olefin,OleT [2]; [4],21 µM
same,Coupling,OleT [2]; [5],7%
same,TOF,OleT [2]; [5],29 h⁻¹
same,TON,OleT [2]; [5],29
same,α-Olefin,OleT [2]; [5],73 µM
same,Coupling,"OleT [2]; 1 mM NADH + O2, CamAB, 60 min",1%
same,TOF,"OleT [2]; 1 mM NADH + O2, CamAB, 60 min",9 h⁻¹
same,TON,"OleT [2]; 1 mM NADH + O2, CamAB, 60 min",9
same,α-Olefin,"OleT [2]; 1 mM NADH + O2, CamAB, 60 min",9 µM
same,Coupling,OleT [2]; [6],3%
same,TOF,OleT [2]; [6],13 h⁻¹
same,TON,OleT [2]; [6],33
same,α-Olefin,OleT [2]; [6],33 µM
"CCCCCCCCCCCCCCCCCC(=O)O [Stearic Acid, stearic acid]",Conversion,"OleT [1]; 4 °C, 72 h",25%
same,Selectivity n-Alkanone,"OleT [1]; 4 °C, 72 h",5 % GC-area
same,Selectivity α-OH,"OleT [1]; 4 °C, 72 h",<1 % GC-area
same,Selectivity α-Olefin,"OleT [1]; 4 °C, 72 h",93 % GC-area
same,Selectivity β-OH,"OleT [1]; 4 °C, 72 h",5 % GC-area
same,α-Olefin,"OleT [1]; 4 °C, 72 h",2451 µM
same,Conversion,"OleT [1]; 25 °C, 24 h",39%
same,Selectivity n-Alkanone,"OleT [1]; 25 °C, 24 h",6 % GC-area
same,Selectivity α-OH,"OleT [1]; 25 °C, 24 h",2 % GC-area
same,Selectivity α-Olefin,"OleT [1]; 25 °C, 24 h",86 % GC-area
same,Selectivity β-OH,"OleT [1]; 25 °C, 24 h",8 % GC-area
same,α-Olefin,"OleT [1]; 25 °C, 24 h",3886 µM
same,maximum product concentration,"OleT [1]; RT, 5 mM stearic acid",2.45 mM
same,Coupling,"OleT [2]; 200 μM H2O2, 60 min, no CamAB",85%
same,TOF,"OleT [2]; 200 μM H2O2, 60 min, no CamAB",170 h⁻¹
same,TON,"OleT [2]; 200 μM H2O2, 60 min, no CamAB",170
same,α-Olefin,"OleT [2]; 200 μM H2O2, 60 min, no CamAB",170 ± 7 µM
same,Coupling,"OleT [2]; 200 μM NADH + O2, CamAB, 6 min",7%
same,TOF,"OleT [2]; 200 μM NADH + O2, CamAB, 6 min",150 h⁻¹
same,TON,"OleT [2]; 200 μM NADH + O2, CamAB, 6 min",15
same,α-Olefin,"OleT [2]; 200 μM NADH + O2, CamAB, 6 min",15 ± 1 µM
same,Coupling,OleT [2]; [4],25%
same,TOF,OleT [2]; [4],53 h⁻¹
same,TON,OleT [2]; [4],53
same,α-Olefin,OleT [2]; [4],53 ± 5 µM
same,Coupling,OleT [2]; [5],5%
same,TOF,OleT [2]; [5],21 h⁻¹
same,TON,OleT [2]; [5],53
same,α-Olefin,OleT [2]; [5],53 ± 15 µM
same,Coupling,"OleT [2]; 1 mM NADH + O2, CamAB, 60 min",2%
same,TOF,"OleT [2]; 1 mM NADH + O2, CamAB, 60 min",20 h⁻¹
same,TON,"OleT [2]; 1 mM NADH + O2, CamAB, 60 min",20
same,α-Olefin,"OleT [2]; 1 mM NADH + O2, CamAB, 60 min",20 ± 2 µM
same,Coupling,OleT [2]; [6],11%
same,TOF,OleT [2]; [6],47 h⁻¹
same,TON,OleT [2]; [6],118
same,α-Olefin,OleT [2]; [6],118 ± 23 µM
same,Conversion,OleT [3]; [7],62%
same,TIN,OleT [3]; [7],2096
same,volumetric productivity of α-olefin,"OleT [3]; FDH-driven system, after 8 h reaction time",42.5 mg/L/h
same,Product,OleT [3]; [8],0.34 g/L
same,TTN,OleT [3]; [8],473
same,α-Olefin,OleT [3]; [8],1419 µM
same,Product,OleT [3]; [9],0.1 g/L
same,TTN,OleT [3]; [9],151
same,α-Olefin,OleT [3]; [9],452 ± 52 µM
same,Product,OleT [3]; [10],0.75 g/L
same,TTN,OleT [3]; [10],2096
same,α-Olefin,OleT [3]; [10],3144 ± 121 µM
same,Product,OleT [3]; [11],0.37 g/L
same,TTN,OleT [3]; [11],522
same,α-Olefin,OleT [3]; [11],1565 ± 20 µM
same,Conversion,"OleT [3]; GDH-based system, 1 mM stearic acid",36%
same,TIN,"OleT [3]; GDH-based system, 10 mM stearic acid",up to 389
same,Product,OleT [3]; [12],0.24 g/L
same,TTN,OleT [3]; [12],680
same,α-Olefin,OleT [3]; [12],1020 ± 63 µM
same,Conversion,OleT [3]; [13],52%
same,TIN,OleT [3]; [13],1739
same,Product,OleT [3]; [14],0.62 g/L
same,TTN,OleT [3]; [14],1739
same,α-Olefin,OleT [3]; [14],2609 ± 256 µM

# Source: patent US9885060B2, “Alkene production” (Evonik Degussa GmbH, priority 2015, dated 2018)
